25 compounds from the Kinase Knowledgebase extract (Sharma et al. 2016) can be followed below.

For one assay, the target named is PIK3CD (Human) (UniProt O00329). Put plainly: Assessment of PIK3CD Kinase Binding Activity.
For assay [1], the target named is PIK3CA (human) (UniProt P42336). The assay can be described thus: Assessment of PIK3CA Kinase Binding Activity.
For another assay, the target named is PIK3CG (human) (UniProt P48736). Put plainly: Assessment of PIK3CG Kinase Binding Activity.
Chain of PIK3CG (human) (P48736 whole entry, looked up): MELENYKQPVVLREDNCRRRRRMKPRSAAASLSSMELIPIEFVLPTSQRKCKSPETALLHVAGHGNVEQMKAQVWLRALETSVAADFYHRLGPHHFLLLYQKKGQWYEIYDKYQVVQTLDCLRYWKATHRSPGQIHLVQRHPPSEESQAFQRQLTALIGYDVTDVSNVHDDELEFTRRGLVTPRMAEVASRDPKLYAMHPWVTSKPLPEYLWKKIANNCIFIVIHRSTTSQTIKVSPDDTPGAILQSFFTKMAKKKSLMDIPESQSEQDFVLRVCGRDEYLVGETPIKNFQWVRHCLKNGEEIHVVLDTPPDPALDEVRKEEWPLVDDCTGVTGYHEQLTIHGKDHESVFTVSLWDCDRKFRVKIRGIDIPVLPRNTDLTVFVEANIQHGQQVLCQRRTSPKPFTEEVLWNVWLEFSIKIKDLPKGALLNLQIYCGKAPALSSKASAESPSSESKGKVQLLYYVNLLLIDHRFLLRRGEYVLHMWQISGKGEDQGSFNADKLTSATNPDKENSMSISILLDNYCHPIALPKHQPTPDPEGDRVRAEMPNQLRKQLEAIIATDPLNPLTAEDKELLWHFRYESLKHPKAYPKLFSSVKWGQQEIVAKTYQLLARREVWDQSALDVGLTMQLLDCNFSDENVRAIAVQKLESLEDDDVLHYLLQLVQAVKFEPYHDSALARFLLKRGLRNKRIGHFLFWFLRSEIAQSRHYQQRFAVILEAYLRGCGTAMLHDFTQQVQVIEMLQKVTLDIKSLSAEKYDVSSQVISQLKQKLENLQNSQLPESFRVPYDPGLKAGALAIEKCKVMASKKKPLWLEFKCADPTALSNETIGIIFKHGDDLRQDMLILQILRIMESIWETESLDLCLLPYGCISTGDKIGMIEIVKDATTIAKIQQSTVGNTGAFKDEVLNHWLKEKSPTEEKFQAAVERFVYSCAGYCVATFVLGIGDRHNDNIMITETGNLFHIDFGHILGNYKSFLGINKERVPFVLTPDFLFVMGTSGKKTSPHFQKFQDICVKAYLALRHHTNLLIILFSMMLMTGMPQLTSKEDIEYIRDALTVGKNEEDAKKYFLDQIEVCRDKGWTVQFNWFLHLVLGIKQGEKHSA
The next assay concerns the target PIK3CB (Human) (UniProt P42338). The assay can be described thus: Assessment of PIK3CB Kinase Binding Activity.
In assay [2] the target is PIK3CA (human) (UniProt P42336). Put plainly: Inhibition of A2780 Cell Proliferation.
Assay [3] has the same target. The assay can be described thus: Inhibition of PIK3CA Kinase Activity.

Chain of PIK3CA (human) (P42336 whole entry, looked up): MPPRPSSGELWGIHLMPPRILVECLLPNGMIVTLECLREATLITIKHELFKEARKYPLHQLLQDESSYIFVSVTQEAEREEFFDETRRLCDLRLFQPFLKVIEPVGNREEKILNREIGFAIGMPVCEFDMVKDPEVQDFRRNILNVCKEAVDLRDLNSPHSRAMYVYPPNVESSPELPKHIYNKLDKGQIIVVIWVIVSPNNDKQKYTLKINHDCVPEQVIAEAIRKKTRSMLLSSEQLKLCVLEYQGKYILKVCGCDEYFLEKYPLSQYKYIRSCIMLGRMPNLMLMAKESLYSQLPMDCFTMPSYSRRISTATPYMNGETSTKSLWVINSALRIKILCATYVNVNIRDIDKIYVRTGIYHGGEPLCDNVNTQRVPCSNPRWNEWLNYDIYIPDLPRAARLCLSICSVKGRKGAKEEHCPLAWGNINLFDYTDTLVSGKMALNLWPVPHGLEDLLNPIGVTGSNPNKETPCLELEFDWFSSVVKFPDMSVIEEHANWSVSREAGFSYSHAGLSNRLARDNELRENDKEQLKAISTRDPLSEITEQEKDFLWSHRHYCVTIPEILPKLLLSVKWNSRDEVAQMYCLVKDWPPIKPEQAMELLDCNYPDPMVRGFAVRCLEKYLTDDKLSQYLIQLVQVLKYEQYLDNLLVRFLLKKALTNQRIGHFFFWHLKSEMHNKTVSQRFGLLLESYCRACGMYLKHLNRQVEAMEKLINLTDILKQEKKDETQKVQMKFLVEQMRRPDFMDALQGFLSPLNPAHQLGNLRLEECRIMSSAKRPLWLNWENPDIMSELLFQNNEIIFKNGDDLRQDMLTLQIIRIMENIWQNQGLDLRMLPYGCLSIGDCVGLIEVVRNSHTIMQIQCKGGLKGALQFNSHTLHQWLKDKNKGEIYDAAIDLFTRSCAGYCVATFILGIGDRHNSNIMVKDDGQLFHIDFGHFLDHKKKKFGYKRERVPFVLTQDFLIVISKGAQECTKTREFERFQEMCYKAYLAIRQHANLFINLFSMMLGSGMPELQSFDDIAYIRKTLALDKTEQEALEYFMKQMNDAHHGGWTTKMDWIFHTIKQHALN
Chain of PIK3CD (Human) (O00329 whole entry, looked up): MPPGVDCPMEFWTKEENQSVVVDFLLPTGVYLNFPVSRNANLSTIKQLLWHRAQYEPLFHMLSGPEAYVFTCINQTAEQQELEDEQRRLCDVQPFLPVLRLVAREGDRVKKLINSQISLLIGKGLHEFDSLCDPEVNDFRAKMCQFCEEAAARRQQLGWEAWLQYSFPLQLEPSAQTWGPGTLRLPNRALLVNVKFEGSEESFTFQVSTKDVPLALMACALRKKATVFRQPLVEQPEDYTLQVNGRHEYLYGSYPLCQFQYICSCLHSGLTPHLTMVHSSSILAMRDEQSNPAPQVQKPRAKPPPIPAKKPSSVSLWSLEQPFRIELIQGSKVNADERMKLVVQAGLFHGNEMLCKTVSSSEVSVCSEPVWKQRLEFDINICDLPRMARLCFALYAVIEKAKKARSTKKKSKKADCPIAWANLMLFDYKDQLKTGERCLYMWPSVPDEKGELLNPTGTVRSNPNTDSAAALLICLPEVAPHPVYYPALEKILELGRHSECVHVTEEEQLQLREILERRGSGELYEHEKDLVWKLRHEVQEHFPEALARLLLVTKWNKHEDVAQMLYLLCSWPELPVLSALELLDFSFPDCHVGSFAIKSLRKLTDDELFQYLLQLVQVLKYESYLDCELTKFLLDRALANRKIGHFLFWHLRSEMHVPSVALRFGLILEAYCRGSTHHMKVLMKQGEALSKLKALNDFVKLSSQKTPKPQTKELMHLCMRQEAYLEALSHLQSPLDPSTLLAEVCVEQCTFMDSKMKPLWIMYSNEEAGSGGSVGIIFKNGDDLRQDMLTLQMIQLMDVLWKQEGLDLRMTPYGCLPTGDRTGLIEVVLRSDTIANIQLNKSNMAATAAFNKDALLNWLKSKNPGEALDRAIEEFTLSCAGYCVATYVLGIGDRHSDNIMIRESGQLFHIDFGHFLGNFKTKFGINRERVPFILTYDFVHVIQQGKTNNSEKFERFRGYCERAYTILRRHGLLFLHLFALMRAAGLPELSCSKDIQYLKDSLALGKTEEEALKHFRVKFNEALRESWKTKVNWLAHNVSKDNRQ
Chain of PIK3CB (Human) (P42338 whole entry, looked up): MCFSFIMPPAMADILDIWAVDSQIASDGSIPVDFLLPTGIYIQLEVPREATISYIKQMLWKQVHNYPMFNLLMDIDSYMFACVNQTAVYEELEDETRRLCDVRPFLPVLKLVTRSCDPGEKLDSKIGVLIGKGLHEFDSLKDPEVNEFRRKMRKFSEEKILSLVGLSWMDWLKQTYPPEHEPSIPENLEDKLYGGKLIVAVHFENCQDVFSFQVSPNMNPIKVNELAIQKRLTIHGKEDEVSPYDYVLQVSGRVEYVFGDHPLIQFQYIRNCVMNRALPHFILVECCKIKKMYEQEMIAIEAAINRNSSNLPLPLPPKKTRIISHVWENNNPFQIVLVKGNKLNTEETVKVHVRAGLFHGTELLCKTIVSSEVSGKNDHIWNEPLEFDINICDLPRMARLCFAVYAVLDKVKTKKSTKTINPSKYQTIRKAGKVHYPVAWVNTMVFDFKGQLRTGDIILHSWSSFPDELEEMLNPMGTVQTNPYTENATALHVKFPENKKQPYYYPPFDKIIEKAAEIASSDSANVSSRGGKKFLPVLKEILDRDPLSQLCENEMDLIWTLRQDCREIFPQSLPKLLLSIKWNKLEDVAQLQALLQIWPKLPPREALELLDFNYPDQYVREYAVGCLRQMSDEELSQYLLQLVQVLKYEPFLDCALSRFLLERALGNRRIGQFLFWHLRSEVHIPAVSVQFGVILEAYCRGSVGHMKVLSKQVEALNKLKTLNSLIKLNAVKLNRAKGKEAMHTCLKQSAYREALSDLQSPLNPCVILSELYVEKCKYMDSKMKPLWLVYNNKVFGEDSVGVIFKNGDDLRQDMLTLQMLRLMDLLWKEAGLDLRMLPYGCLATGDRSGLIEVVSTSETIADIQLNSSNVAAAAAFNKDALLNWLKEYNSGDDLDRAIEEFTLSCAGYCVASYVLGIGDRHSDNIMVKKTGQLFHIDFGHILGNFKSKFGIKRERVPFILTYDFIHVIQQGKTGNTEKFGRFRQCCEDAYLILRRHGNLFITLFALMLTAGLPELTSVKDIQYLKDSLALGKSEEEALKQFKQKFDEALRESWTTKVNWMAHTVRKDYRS

By Ki is commonly meant a dissociation constant, usually derived from enzyme kinetics or from competition with a known ligand. A high value points to lower affinity. Regarding `CCc1cnc(CCNC(=O)Nc2cn3cc(-c4cnc(N)c(C(F)(F)F)c4)ccc3n2)o1`, the inhibition constant Ki at PIK3CD (Human), at PIK3CA (human) [1], at PIK3CG (human) and on PIK3CB (Human) was under 1000 nM in each case.

As to `CC(C)n1nnc(CCNC(=O)Nc2cn3cc(-c4cnc(N)c(C(F)(F)F)c4)ccc3n2)n1`, the Ki on PIK3CD (Human), at PIK3CA (human) [1], on PIK3CG (human) and on PIK3CB (Human) was under 1000 nM throughout.

Consider `CCc1nnn(CCNC(=O)Nc2cn3cc(-c4cnc(N)c(C(F)(F)F)c4)ccc3n2)n1`, for which the Ki at PIK3CD (Human), on PIK3CA (human) [1], at PIK3CG (human) and on PIK3CB (Human) was under 1000 nM in each case.

For `CC(C)n1nnc(CCNC(=O)Nc2cn3cc(-c4ccc(N)nc4)ccc3n2)n1`, the Ki is under 1000 nM at PIK3CD (Human), under 10000 nM at PIK3CA (human) [1], under 1000 nM at PIK3CG (human) and under 1000 nM on PIK3CB (Human).

For the compound `CCn1nnc(CCNC(=O)Nc2cn3cc(-c4cnc(N)c(C(F)(F)F)c4)ccc3n2)n1`, the Ki on PIK3CD (Human), on PIK3CA (human) [1], on PIK3CG (human) and at PIK3CB (Human) was under 1000 nM each time.

As usually defined, the EC50 is the concentration giving half of the maximal effect. A higher EC50 goes with lower potency in that assay. What is called IC50 is the concentration needed to halve the response being measured. A higher IC50 goes with lower potency. Turning to `COCC(=O)Nc1cn2nc(-c3cnc(N)c(C(F)(F)F)c3)ccc2n1`, on PIK3CA (human) [2], the EC50 was under 1000 nM. On PIK3CA (human) [3], this compound came in with an IC50 of under 1000 nM.

In turn, `CC(=O)Nc1cn2cc(-c3cnc(N)nc3)ccc2n1` displayed an EC50 at PIK3CA (human) [2] of under 25000 nM. For the same compound, the IC50 on PIK3CA (human) [3] was under 1000 nM.

`CC(=O)Nc1nc2ccc(-c3cnc(N)c(C(F)(F)F)c3)cn2c1-c1cccc(F)c1`: the EC50 at PIK3CA (human) [2] was under 25000 nM. Also, at PIK3CA (human) [3], the IC50 was under 1000 nM.

At PIK3CA (human) [2], `CC(=O)Nc1cn2cc(-c3cnc(N)c(C=NNc4ccccc4)c3)ccc2n1` showed an EC50 of under 1000 nM. This compound also came in with an IC50 against PIK3CA (human) [3] of under 1000 nM.

In the case of `CC(=O)Nc1nc2ccc(-c3cnc(N)c(C(F)(F)F)c3)c(F)c2s1`, the EC50 on PIK3CA (human) [2] is under 10000 nM. The compound also showed an IC50 against PIK3CA (human) [3] of under 1000 nM.

Compound `Nc1ncc(-c2ccc3nc(NC(=O)CCCN4CCCCC4)cn3c2)cc1C(F)(F)F` yielded an EC50 at PIK3CA (human) [2] of under 10000 nM. Moreover, the IC50 at PIK3CA (human) [3] was under 1000 nM.

With `Nc1ncc(-c2ccc3nc(NC(=O)CCCN4CCCCC4)cn3n2)cc1C(F)(F)F`, the half-maximal effective concentration (EC50) at PIK3CA (human) [2] is under 1000 nM. On PIK3CA (human) [3], this compound had an IC50 of under 1000 nM.

`CC(=O)Nc1cn2cc(-c3cnc(N)c(C(=O)NCCNS(C)(=O)=O)n3)ccc2n1` gave an EC50 on PIK3CA (human) [2] of under 25000 nM. The IC50 on PIK3CA (human) [3] was under 1000 nM.

Turning to `CC(C)(C)OC(=O)N1CCC[C@@H]1C(=O)Nc1cn2nc(-c3cnc(N)c(C(F)(F)F)c3)ccc2n1`, the EC50 at PIK3CA (human) [2] was under 25000 nM. On PIK3CA (human) [3], this compound gave an IC50 of under 1000 nM.

Take `COc1ccc(CC(=O)Nc2cn3cc(-c4cnc(N)c(C(F)(F)F)c4)ccc3n2)cc1`: the EC50 at PIK3CA (human) [2] was under 1000 nM. The compound further showed an IC50 at PIK3CA (human) [3] of under 1000 nM.

`CC(=O)Nc1nc2ccc(-c3cnc(N)c(C(F)(F)F)c3)cn2c1-c1ccccc1` returned an EC50 on PIK3CA (human) [2] of under 25000 nM. At PIK3CA (human) [3], this compound yielded an IC50 of under 1000 nM.

At PIK3CA (human) [2], `COCCOc1nc(-c2ccc3nc(NC(=O)C4CCN4)cn3c2)cnc1N` (stereo not given) came in with an EC50 of under 25000 nM. On PIK3CA (human) [3], the IC50 is under 1000 nM.

For the compound `Nc1ncc(-c2ccc3nc(NC(=O)CCCn4ccnc4)cn3c2)cc1C(F)(F)F`, the EC50 on PIK3CA (human) [2] is under 10000 nM. The same compound showed an IC50 at PIK3CA (human) [3] of under 1000 nM.

Take `Nc1ncc(-c2ccc3nc(NC(=O)[C@@H]4CCN4)cn3c2)cc1C(F)(F)F`: the EC50 at PIK3CA (human) [2] is under 10000 nM. The IC50 against PIK3CA (human) [3] is under 1000 nM.

As for `Nc1ncc(-c2ccc3nc(NC(=O)CCCN4CCOCC4)cn3c2)cc1C(F)(F)F`, the EC50 at PIK3CA (human) [2] was under 10000 nM. On PIK3CA (human) [3], this compound returned an IC50 of under 1000 nM.

Turning to `NCCCC(=O)Nc1cn2nc(-c3cnc(N)c(C(F)(F)F)c3)ccc2n1`, the EC50 at PIK3CA (human) [2] is under 25000 nM. Also, the IC50 at PIK3CA (human) [3] was under 1000 nM.

Take `CC(=O)N1CCC[C@H]1C(=O)Nc1cn2cc(-c3cnc(N)c(C(F)(F)F)c3)ccc2n1`: the EC50 on PIK3CA (human) [2] is under 25000 nM. On PIK3CA (human) [3], the IC50 is under 1000 nM.

`CC(=O)NC1CCN(C(=O)Nc2cn3cc(-c4cnc(N)c(C(F)(F)F)c4)ccc3n2)C1` (stereo not given) came in with an EC50 on PIK3CA (human) [2] of under 25000 nM. On PIK3CA (human) [3], this compound showed an IC50 of under 1000 nM.

At PIK3CA (human) [2], `CC(=O)Nc1cn2nc(-c3cnc(N)c(N4CCOCC4)n3)ccc2n1` returned an EC50 of under 25000 nM. The compound also registered an IC50 against PIK3CA (human) [3] of under 1000 nM.

The compound `CN(CC(=O)Nc1cn2nc(-c3cnc(N)c(C(F)(F)F)c3)ccc2n1)C(=O)OC(C)(C)C` showed a concentration for a half-maximal effect (EC50) at PIK3CA (human) [2] of under 10000 nM. The IC50 at PIK3CA (human) [3] was under 1000 nM.
